Test results: patent publication US10668018B2, “Pharmaceutical compositions” (MEXICHEM AMANCO HOLDINGS S.A. DE C.V., priority 2011, dated 2020)

How the values were obtained:
[1] = Amount of ethanol required to dissolve the drug in propellant/ethanol mixture (visual, first clear solution); format: physicochemical; details: for ethanol required to dissolve the drug: 20° C., drug amount equivalent to MDI dose of 50 μg (FP) or 250 μg (BDP); for Ethanol Content in R-134a / Ethanol Content in R-152a: amount required to dissolve the drug completely, BDP 250 μg, FP 50 μg dose
Procedure: A series of glass vials were charged with 0.00869 g (8.69 mg) of fluticasone propionate. R-152a propellant was then added to each vial, the amount being decreased from one vial to the next to compensate for increasing amounts of ethanol. An amount of ethanol was then added to each vial, with the amount being increased in increments from one vial to the next, in order to determine the minimum amount of ethanol required to dissolve the fluticasone propionate in the R-152a/ethanol mixture. […] The amount of ethanol in the R-152a/ethanol mixture was increased from 1% by weight on the total weight of the R-152a/ethanol mixture in 1% w/w increments. After adding the ethanol, each vial was sonicated in an effort to dissolve the drug, stored at 20° C. and then examined visually to determine whether the drug had in fact dissolved. […] It was determined that 5.0% w/w of ethanol was required to dissolve the fluticasone propionate. […] R-152a propellant was then added to each vial, the amount being decreased from one vial to the next to compensate for increasing amounts of ethanol. […] The amount of ethanol in the R-152a/ethanol mixture was increased from 1% by weight on the total weight of the R-152a/ethanol mixture in 1% w/w increments. After adding the ethanol, each vial was sonicated in an effort to dissolve the drug, stored at 20° C. and then examined visually to determine whether the drug had in fact dissolved. […] Exactly the same procedure as described in Example 3 above was used except that R-134a was used as the propellant. It was determined that 13.0% w/w of ethanol (% by weight on the total weight of the R-134a/ethanol mixture) was required to dissolve the fluticasone propionate. […] Exactly the same procedure as described in Example 4 above was used except that R-134a was used as the propellant. […] The drug was weighed directly into standard aluminium 19 mL cans (C128, Presspart, Blackburn, UK), to which an appropriate amount of ethanol was added to aid solubility of the drug on addition of the propellant. The slurry of the drug in ethanol was then sonicated for 60 minutes in order to disperse the drug in the ethanol. The cans were then crimped with a 50 μL valve (Bespak, Kings Lynn, UK) following which R-152a or R-134a as appropriate was filled into the cans through the valve using a manual Pamasol crimper/filler (Pamasol, Switzerland). […] Finally, all the cans were quarantined for 14 days, valve down, at 22° C./44% RH before commencing testing of the final formulations.

[2] = Solubility of drug in liquefied propellant (pressure solubility apparatus, HPLC); format: physicochemical; details: stored at 20° C. for 24 hours, n=3
Procedure: An excess of active pharmaceutical ingredient was placed into a pressure cylinder (300 cm^3 stainless steel cylinder from Whitey, Inc.). A vacuum was applied to the cylinder, which was then chilled using liquid nitrogen. Approximately 80 grams of either R-152a or R-134a propellant was charged into the cylinder, which was then stored at 20° C. for 24 hours.
A filtration unit comprising a 15 μm filter in-line with a 5 μm filter was connected to the cylinder containing the excess of drug in propellant. A second receiver pressure cylinder (150 cm^3 stainless steel cylinder from Whitey, Inc.) was exposed to a vacuum and chilled using liquid nitrogen, which was then connected to the filtration unit. Approximately 30 grams of liquid propellant containing drug in excess was passed through the filtration unit and collected in the receiver pressure cylinder.
A modified piece of 3.2 mm (⅛″) tubing was connected to the end of the receiver pressure cylinder, which was then attached to the stem of a continuous valve crimped on to a glass bottle. The 3.2 mm (⅛″) tubing was used to depress the stem of the valve and therefore, enable the contents of the receiver pressure cylinder to be collected in the glass bottle. […] The glass bottle was re-weighed and the mass of drug collected in the DUSA was determined by high performance liquid chromatography (HPLC). […]

| SMILES | ethanol required to dissolve the drug ([1]; R-134a/ethanol mixture) | ethanol required to dissolve the drug ([1]; R-152a/ethanol mixture) | Ethanol Content in R-134a [1] | Ethanol Content in R-152a [1] | mean drug solubility (± S.D.) ([2]; propellant comprising 100% R-134a) | mean drug solubility (± S.D.) ([2]; propellant comprising 100% R-152a) |
| --- | --- | --- | --- | --- | --- | --- |
| CCC(=O)OCC(=O)[C@@]1(OC(=O)CC)[C@@H](C)C[C@H]2[C@@H]3CCC4=CC(=O)C=C[C@]4(C)[C@@]3(Cl)[C@@H](O)C[C@@]21C [beclomethasone dipropionate] | 4.0 % w/w | 2.0 % w/w | 4.0 % w/w | 2.0 % w/w |  |  |
| CCC(=O)O[C@]1(C(=O)SCF)[C@H](C)C[C@H]2[C@@H]3C[C@H](F)C4=CC(=O)C=C[C@]4(C)[C@@]3(F)[C@@H](O)C[C@@]21C [fluticasone propionate] | 13.0 % w/w | 5.0 % w/w | 13.0 % w/w | 5.0 % w/w | 14.27 ± 1.66 µg/g | 73.55 ± 3.98 µg/g |
